Assay: gradient 5% acetonitrile 3 min, to 50% in 2 min, to 85% in 15 min, held 3 min, 100 µL/min
Conditions: column: Zorbax Extend-C18 2.1 x 50 mm; eluents: water / acetonitrile, 0.1% formic acid
How it was run: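 Retention time was recorded from adduct peaks, which were picked computationally and each inspected manually. Pure standards ran in mixtures of ~100 molecules on HPLC coupled to a quadrupole time-of-flight mass spectrometer, in positive and negative ionization mode, through a Zorbax Extend-C18 column (2.1 × 50 mm, 1.8 μm) at 100 μL/min. Eluents were water and acetonitrile, each with 0.1% formic acid.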

Compound: O=C(CSc1ccc(F)cc1)Nc1nnc(COc2ccccc2)o1
- RP-LC retention time: 790 s

Compound: O=C(Cn1c(=O)cc(-c2nc(C3CC3)no2)c2ccccc21)NCc1ccc2c(c1)OCO2
- RP-LC retention time: 906 s

Compound: CC(NC(=O)c1cccnc1)c1nc(-c2ccccc2)no1 (configuration not stated)
- RP-LC retention time: 694 s

Compound: COc1ccc(/C=C\c2onc(C)c2NC(C)=O)cc1S(=O)(=O)N1CCN(c2ccccn2)CC1
- RP-LC retention time: 612 s

Compound: COc1ccc(OC)c(NC(=O)N2CCCn3nc(-c4cccs4)cc3C2)c1
- RP-LC retention time: 867 s

Compound: CCCS(=O)(=O)N1CC(c2nnc(-c3ccncc3)o2)C2(CCOCC2)C1 (configuration not stated)
- RP-LC retention time: 625 s

Compound: CCCn1cc(S(=O)(=O)NCc2cccc(C)c2)c2cccnc21
- RP-LC retention time: 943 s

Compound: CC(C)n1nccc1-c1csc(S(=O)(=O)N2CCC3(CC2)OCCO3)c1
- RP-LC retention time: 922 s

Compound: CCOc1ccc(NC(=O)N2CCC3(C2)C(=O)Nc2ccccc23)cc1 (configuration not stated)
- RP-LC retention time: 720 s

Compound: Cn1c(-c2cccc(C(=O)N3CCN(c4ccccc4)CC3)c2)nc2cccnc21
- RP-LC retention time: 736 s

Compound: Cc1nc(-c2ccc3c(c2)n(CC(=O)NC2CC2)c(=O)n3C(C)C)no1
- RP-LC retention time: 685 s

Compound: CCCN1CCN(c2ncc3c(n2)CCN(Cc2cccc(Br)c2)C3)CC1
- RP-LC retention time: 565 s

Compound: CSc1nc2ccc(NC(=O)c3cccs3)cc2s1
- RP-LC retention time: 837 s

Compound: Cc1nc(CSc2ncnc3sc(C)c(C)c23)cs1
- RP-LC retention time: 988 s

Compound: Cc1ccc(-c2nnc(CC(=O)NCCc3cccs3)o2)cc1
- RP-LC retention time: 771 s

Compound: Cc1ccc(CNC(=O)C2CCCN(c3cnc4nccnc4c3)C2)cc1C (configuration not stated)
- RP-LC retention time: 722 s

Compound: CCC1(C(=O)OC)CCc2c(cc(OC)c3ccccc23)C1=O (configuration not stated)
- RP-LC retention time: 1250 s

Compound: COc1cc(NC(=O)Cn2cccc2-c2nnc(-c3ccccc3)o2)cc(OC)c1
- RP-LC retention time: 993 s

Compound: O=C(NCc1noc(C2CCCC2)n1)C1CCCCC1
- RP-LC retention time: 811 s

Compound: Cc1ccc(CN2CCn3c(nnc3[C@@H]3C[C@@H](O)CN3Cc3cccnc3)C2)s1
- RP-LC retention time: 566 s

Compound: CCNC(=O)N1CCc2nc(OCC)ccc2C1
- RP-LC retention time: 606 s

Compound: Cc1cc(N2CCN(C(=O)c3ccco3)CC2)nc(N2CCOCC2)n1
- RP-LC retention time: 566 s

Compound: COc1ccc(CN(C(=O)COc2c(C)cccc2C)C2CCS(=O)(=O)C2)cc1OC (configuration not stated)
- RP-LC retention time: 847 s

Compound: COc1ccc(NC(=O)c2cccn2Cc2noc(C)n2)cc1Cl
- RP-LC retention time: 859 s

Compound: COc1cc(NC(=O)C2CC(=O)N(CCc3c[nH]c4ccc(F)cc34)C2)cc(OC)c1OC (configuration not stated)
- RP-LC retention time: 744 s

Compound: COc1cc(-c2nc3ncccn3c2Nc2ccc(C)c(C)c2)ccc1O
- RP-LC retention time: 683 s

Compound: Cc1ccc(Cn2c(N3CCCC(C(=O)NCc4ccccc4F)C3)nc3ccsc3c2=O)cc1 (configuration not stated)
- RP-LC retention time: 981 s

Compound: COc1cc(OC)cc(-c2nc(NC(=O)C3CCCN(c4cnc5ccccc5n4)C3)n[nH]2)c1 (configuration not stated)
- RP-LC retention time: 1020 s

Compound: O=C(c1cccs1)N1CC(C(=O)N2CCN(c3ccccc3Cl)CC2)C1
- RP-LC retention time: 788 s

Compound: Cc1ccccc1OCC(=O)Nc1ccc2c(c1)Sc1ncccc1C(=O)N2C(C)C
- RP-LC retention time: 972 s

Compound: O=C([C@@H]1C[C@H](F)CN1C(=O)Nc1cccc(Cl)c1)N1CCCCC1
- RP-LC retention time: 747 s

Compound: COc1ccc(-c2cc(=O)c3c(O)c(OC)c(OC)cc3o2)cc1O
- RP-LC retention time: 906 s

Compound: COCC(=O)N1CC2CN(S(=O)(=O)c3ccc(OC)cc3)CC(C1)O2
- RP-LC retention time: 934 s

Compound: O=C(NCC1CCN(c2ncccn2)CC1)c1cccc(C(F)(F)F)c1
- RP-LC retention time: 749 s

Compound: COc1ccc(-n2c(=O)n(C)c(=O)c3cc(C(=O)NCc4ccccc4OC)cnc32)cc1
- RP-LC retention time: 859 s

Compound: Cn1nc(C(=O)N2CCOCC2)c2c1CCN(C(=O)Nc1ccccc1Br)C2
- RP-LC retention time: 674 s

Compound: Cc1ccc(-c2nnc(-c3cccc(S(=O)(=O)N4CCN(C)CC4)c3)o2)cc1
- RP-LC retention time: 679 s

Compound: Cc1nc(Cn2cccc2C(=O)NCc2cccc(Br)c2)no1
- RP-LC retention time: 852 s

Compound: CCCn1c(=O)c(-c2ccc(C(=O)NC(C)C)cc2)nc2ccccc21
- RP-LC retention time: 915 s

Compound: N#Cc1ccc(N2C=C(C(=O)N3CCOCC3)S(=O)(=O)c3ccc(F)cc32)cc1
- RP-LC retention time: 726 s

Compound: CCOC(=O)c1c(C)oc2ncnc(N3CCN(c4ccccn4)CC3)c12
- RP-LC retention time: 628 s

Compound: CCc1ccc(S(=O)(=O)N2CCC(n3c(-c4ccco4)nc4cccnc43)C2)cc1 (configuration not stated)
- RP-LC retention time: 972 s

Compound: CC(C)c1ccccc1NC(=O)CN1C(=O)NC2(CCCCC2)C1=O
- RP-LC retention time: 807 s

Compound: CS(=O)(=O)Nc1ccc(-c2noc(-c3cnccn3)n2)cc1
- RP-LC retention time: 686 s

Compound: Cc1sc(-c2nnc(C(C)C)o2)cc1NC(=O)C1CCC1
- RP-LC retention time: 892 s

Compound: CCCNC(=O)CN1C(=O)CC(c2ccc(Br)s2)=Nc2ccccc21
- RP-LC retention time: 913 s

Compound: Cn1ccc(C(=O)N2CC(n3cc(COc4ccc(F)cc4)nn3)C2)n1
- RP-LC retention time: 722 s

Compound: CCc1cccc(C)c1Nc1c(-c2ccc(O)c(OC)c2)nc2ncccn12
- RP-LC retention time: 686 s

Compound: O=S(=O)(c1cccnc1)N1CCC(OC2CCN(Cc3ccccc3)CC2)CC1
- RP-LC retention time: 637 s

Compound: CC(C)NC(=O)c1ccc(-c2nc3cc(NS(=O)(=O)CCc4ccccc4)ccc3n2C)cc1
- RP-LC retention time: 694 s

Compound: COc1ccccc1N1CCN(Cc2nc3nc(C)cc(N4CCCC4)n3n2)CC1
- RP-LC retention time: 606 s

Compound: Cn1c(=O)c(=O)n(C)c2cc(N3CCCCC3)c(NC(=O)CN3CCCC3)cc21
- RP-LC retention time: 599 s

Compound: COc1nn(C)cc1C(=O)NCC(c1ccco1)N1CCN(c2ccc(F)cc2)CC1 (configuration not stated)
- RP-LC retention time: 581 s

Compound: O=S(=O)(c1cccs1)N1CCc2nc(-c3ccc(Cl)cc3)ncc2C1
- RP-LC retention time: 1150 s

Compound: O=C1C(Br)=Cc2cccc3cccc1c23
- RP-LC retention time: 996 s

Compound: Cc1cccc(Cn2nc(-c3nc(C)no3)ccc2=O)c1
- RP-LC retention time: 789 s

Compound: C=CCN1CCN(C(=O)C2CCN(c3nc(NC(C)=O)c(C(=O)N4CCCC4)s3)CC2)CC1
- RP-LC retention time: 579 s

Compound: CCOc1nc2ccccc2nc1N1CCCC(C(=O)N2CCN(c3ccc(F)cc3)CC2)C1 (configuration not stated)
- RP-LC retention time: 1300 s

Compound: CCCNC(=O)c1nnn(Cc2ccc(Cl)cc2)c1-n1cccc1
- RP-LC retention time: 980 s

Compound: Cn1cc(S(=O)(=O)N2CCC(C(=O)N3CCCCCC3)CC2)cc1C(=O)N1CCCCC1
- RP-LC retention time: 770 s

Compound: O=C(c1ccncc1)N1CCN(c2cc(-c3cccs3)[nH]n2)CC1
- RP-LC retention time: 619 s

Compound: Cn1c(=O)c(C(=O)NCc2ccccc2Cl)nc2cccnc21
- RP-LC retention time: 728 s

Compound: CCOC(=O)c1c(S(=O)(=O)N2CCC(C(=O)NCc3cccc(OC)c3)CC2)c(C)n(C)c1C
- RP-LC retention time: 772 s

Compound: CCCC(=O)Nc1ccc2c(c1)CC(C(=O)NCC(=O)OC)CO2 (configuration not stated)
- RP-LC retention time: 650 s

Compound: COc1ccc(CNC(=O)C2CCN(c3nccn4nc(-c5cccs5)cc34)CC2)cc1
- RP-LC retention time: 754 s

Compound: Cc1cccc(NC(=O)CS(=O)(=O)Cc2ccccc2)n1
- RP-LC retention time: 707 s

Compound: Fc1ccc(C2Cn3nnc(-c4nc(-c5cccc(F)c5)no4)c3CO2)cc1 (configuration not stated)
- RP-LC retention time: 1150 s

From the METLIN SMRT retention time set (Domingo-Almenara et al. 2019)
